Measurements reported in PubChem BioAssay AID1918937 (Molecular Pharmacology Branch, DTP, NCI, 2023).
Values joined by “and” are separate entries in the source; they are usually repeats but may differ in a detail not shown here. Equal values may be shown once. One block for each molecule: values may come before it.

Tested on: 521955-158-R2-J5-PDC complex spheroid viability
Test: Anticancer human tumor 521955-158-R2-J5-PDC patient-derived pancreatic carcinoma cell line growth inhibition
Details: for viability, T/C: stronger effect = lower value
Excerpt: Multicellular complex tumor spheroid response to LSD1 Inhibitor Iadademstat in combination with a variety of drugs and investigational agents in selected tumor cell lines
The current study was undertaken to assess response to LSD1 inhibitors in combination with standard-of-care drugs and investigational agents in solid tumor complex spheroid models as well as in the K-562 leukemia. Complex spheroids include a stromal component modeled by human endothelial cells (HUVEC) and fibroblasts modeled by human mesenchymal stem cells (MSCs). The concentration ranges selected for each drug and investigational agent were based upon clinically achievable concentrations if the clinical Cmax of the agent was known.
Compounds. The drugs and investigational agents used in this study are listed on Table 1. All of the agents used, including staurosporine (NSC755774) and gemcitabine (NSC613327), were obtained from the Developmental Therapeutics Program, NCI. FDA-approved anticancer drugs are available from the NCI at http://dtp.nci.nih.gov/branches/dscb/oncology_drugset_explanation.html. Drugs and investigational agents were >95% pure by proton nuclear magnetic resonance (NMR) and liquid chromatography/mass spectrometry (LC/MS). Stock solutions were prepared at 400x in DMSO, stored at -70 degrees C, and diluted in fresh medium prior to their use. The final concentration of DMSO in cell culture wells never exceeded 0.25% (v/v). The FDA-approved anticancer drug set is available from the Developmental Therapeutics Program at https://dtp.cancer.gov/organization/dscb/obtaining/available_plates.htm. All drugs and investigational agents were tested over a range starting from a high concentration at or near the clinical Cmax and decreasing in half-log increments. If the clinical Cmax for an agent had not been determined, the highest concentration tested was 10 microM.
Cell Lines. The patient-derived cancer cell (PDC) lines: 292921-168-R-J2-PDC, K24384-001-R-PDC, and 521955-158-R2-J5-PDC pancreatic carcinomas, 556581-035-R-J1 ovarian carcinoma, 324938-238-R-J1-PDC, 855422-203-R-J1-PDC and 883617-216-R-J1-PDC urothelial bladder carcinomas, 743489-274-T-PDC renal cell carcinoma, 138582-R-J1 Merkel cell tumor, K60290-347-R-J1 and K57222-313-R-J1-PDC glioblastomas, 653999-131-R-J2-PDC, LG0703-F948-PDC, and 349418-098-R-PDC non-small cell lung carcinomas, 885512-296-R-J2-PDC, 171881-019-R-J1-PDC breast carcinomas and 186277-243-T-J2-PDC and 233499-124-R-J2-PDC colon carcinomas were obtained from the NCI Patient-Derived Models Repository (PDMR, https://pdmr.cancer.gov). The established cell lines NCI/ADR-RES (RRID:CVCL_14520 and OVCAR-5 (RRID:CVCL_1628) ovarian carcinomas, 786-O (RRID:CVCL_1051) and A498 (RRID:CVCL_A498) renal cell carcinoma, NCI-H211 (ATCC, cat. CRL-5824; RRID:CVCL_1529), NCI-H196 (ATCC, cat. CRL-5823, RRID:CVCL_1509), SW 1271 (ATCC, cat. CRL-2177, RRID:CVCL_1716) and NCI-H1876 (ATCC, cat. CRL-5902, RRID:CVCL_1503) small cell lung carcinomas, MDA-MB-231 (RRID:CVCL_0062) and MDA-MB-468 (RRID:CVCL_0419)breast carcinomas (10-12). Pooled donor human umbilical vein endothelial cells (HUVEC, Lonza, cat. CC-2519) and human mesenchymal stem cells (hMSC, Lonza, cat. PT-2501) were purchased from Lonza (Walkersville, MD).
Cell Culture. All cells were maintained in an incubator at 37 degrees C and 5% CO2 with 95% humidity. The PDC lines were cultured according to standard operating procedures established by the NCI PDMR (https://pdmr.cancer.gov). Briefly all PDCs were thawed and cultured in Matrigel-coated flasks prepared with a working solution of 1X Ham's F-12 nutrient mix, without supplementation (Invitrogen, Waltham, MA, cat. 11765054), 100 U/mL penicillin-streptomycin (Invitrogen, cat. 15140122), and 2.5% Matrigel (Corning Inc., Corning, NY, cat. 354248) for the first three passages. […]

[1] = curve of first compound, second compound 0.1 µM
[2] = curve of first compound, second compound 0.316 µM
[3] = curve of first compound, second compound 1 µM
[4] = curve of first compound, second compound 3.16 µM
[5] = curve of first compound, second compound 10 µM
[6] = second compound 0.1 µM, first compound 0.00316 µM
[7] = second compound 0.1 µM, first compound 0.01 µM
[8] = second compound 0.1 µM, first compound 0.0316 µM
[9] = second compound 0.1 µM, first compound 0.1 µM
[10] = second compound 0.316 µM, first compound 0.00316 µM
[11] = second compound 0.316 µM, first compound 0.01 µM
[12] = second compound 0.316 µM, first compound 0.0316 µM
[13] = second compound 0.316 µM, first compound 0.1 µM
[14] = second compound 1 µM, first compound 0.00316 µM
[15] = second compound 1 µM, first compound 0.01 µM
[16] = second compound 1 µM, first compound 0.0316 µM
[17] = second compound 1 µM, first compound 0.1 µM
[18] = second compound 3.16 µM, first compound 0.00316 µM
[19] = second compound 3.16 µM, first compound 0.01 µM
[20] = second compound 3.16 µM, first compound 0.0316 µM
[21] = second compound 3.16 µM, first compound 0.1 µM
[22] = second compound 10 µM, first compound 0.00316 µM
[23] = second compound 10 µM, first compound 0.01 µM
[24] = second compound 10 µM, first compound 0.0316 µM
[25] = second compound 10 µM, first compound 0.1 µM
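Note: spheroids exposed to agents for seven days.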
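Throughout, for viability, T/C: percent of DMSO vehicle control luminescence viability.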

Structure (SMILES): CC1COCCN1c1cc(-c2ccnn2C)c2ccnc(-c3ccn[nH]3)c2n1 (configuration not stated) + NC1CC1c1ccc(-c2cccc(O)c2)cc1
- IC50 [1]: < 3.16 nM
- IC50 [2]: < 3.16 nM
- IC50 [3]: < 3.16 nM
- IC50 [4]: < 3.16 nM
- IC50 [5]: < 3.16 nM
- viability, T/C [6]: 15.7%
- viability, T/C [7]: 16.1%
- viability, T/C [8]: 17.3%
- viability, T/C [9]: 25.2%
- viability, T/C (second compound 0.1 µM, first compound 0.316 µM): 29.5%
- viability, T/C (second compound 0.1 µM, first compound 1 µM): 10.9%
- viability, T/C [10]: 23.3%
- viability, T/C [11]: 16.2%
- viability, T/C [12]: 17.9%
- viability, T/C [13]: 26.1%
- viability, T/C (second compound 0.316 µM, first compound 0.316 µM): 28.5%
- viability, T/C (second compound 0.316 µM, first compound 1 µM): 10.6%
- viability, T/C [14]: 22.9%
- viability, T/C [15]: 19.6%
- viability, T/C [16]: 18.9%
- viability, T/C [17]: 25.4%
- viability, T/C (second compound 1 µM, first compound 0.316 µM): 26.6%
- viability, T/C (second compound 1 µM, first compound 1 µM): 10.6%
- viability, T/C [18]: 22.8%
- viability, T/C [19]: 19.7%
- viability, T/C [20]: 21.1%
- viability, T/C [21]: 24.9%
- viability, T/C (second compound 3.16 µM, first compound 0.316 µM): 26.1%
- viability, T/C (second compound 3.16 µM, first compound 1 µM): 9.32%
- viability, T/C [22]: 26.7%
- viability, T/C [23]: 22.6%
- viability, T/C [24]: 22.5%
- viability, T/C [25]: 26.9%
- viability, T/C (second compound 10 µM, first compound 0.316 µM): 22.4%
- viability, T/C (second compound 10 µM, first compound 1 µM): 9.48%

Structure (SMILES): CCN(c1cc(-c2ccc(CN3CCOCC3)cc2)cc(C(=O)NCc2c(C)cc(C)[nH]c2=O)c1C)C1CCOCC1 + NC1CCC(NC2CC2c2ccccc2)CC1
- IC50 [1]: > 3000 nM
- IC50 [2]: 2560 nM
- IC50 [3]: 1880 nM
- IC50 [4]: 1730 nM
- IC50 [5]: 1490 nM
- viability, T/C (second compound 0.1 µM, first compound 0.00949 µM): 105%
- viability, T/C (second compound 0.1 µM, first compound 0.03 µM): 105%
- viability, T/C (second compound 0.1 µM, first compound 0.0949 µM): 94.4%
- viability, T/C (second compound 0.1 µM, first compound 0.3 µM): 83.3%
- viability, T/C (second compound 0.1 µM, first compound 0.949 µM): 64.6%
- viability, T/C (second compound 0.1 µM, first compound 3 µM): 51%
- viability, T/C (second compound 0.316 µM, first compound 0.00949 µM): 103%
- viability, T/C (second compound 0.316 µM, first compound 0.03 µM): 99.1%
- viability, T/C (second compound 0.316 µM, first compound 0.0949 µM): 95.8%
- viability, T/C (second compound 0.316 µM, first compound 0.3 µM): 78.2%
- viability, T/C (second compound 0.316 µM, first compound 0.949 µM): 71%
- viability, T/C (second compound 0.316 µM, first compound 3 µM): 46.3%
- viability, T/C (second compound 1 µM, first compound 0.00949 µM): 103%
- viability, T/C (second compound 1 µM, first compound 0.03 µM): 99.8%
- viability, T/C (second compound 1 µM, first compound 0.0949 µM): 93.7%
- viability, T/C (second compound 1 µM, first compound 0.3 µM): 79%
- viability, T/C (second compound 1 µM, first compound 0.949 µM): 66%
- viability, T/C (second compound 1 µM, first compound 3 µM): 39.5%
- viability, T/C (second compound 3.16 µM, first compound 0.00949 µM): 96.8%
- viability, T/C (second compound 3.16 µM, first compound 0.03 µM): 103%
- viability, T/C (second compound 3.16 µM, first compound 0.0949 µM): 96.3%
- viability, T/C (second compound 3.16 µM, first compound 0.3 µM): 82.8%
- viability, T/C (second compound 3.16 µM, first compound 0.949 µM): 66.6%
- viability, T/C (second compound 3.16 µM, first compound 3 µM): 35.7%
- viability, T/C (second compound 10 µM, first compound 0.00949 µM): 103%
- viability, T/C (second compound 10 µM, first compound 0.03 µM): 101%
- viability, T/C (second compound 10 µM, first compound 0.0949 µM): 94.6%
- viability, T/C (second compound 10 µM, first compound 0.3 µM): 83.8%
- viability, T/C (second compound 10 µM, first compound 0.949 µM): 59.6%
- viability, T/C (second compound 10 µM, first compound 3 µM): 34.8%

Structure (SMILES): CC(C)CC(NC(=O)CNC(=O)c1cc(Cl)ccc1Cl)B1OC(=O)CC(CC(=O)O)(C(=O)O)O1 (configuration not stated) + NC1CCC(NC2CC2c2ccccc2)CC1
- IC50 [1]: 5.31 nM
- IC50 [2]: 5.02 nM
- IC50 [3]: 4.9 nM
- IC50 [4]: 5.38 nM
- IC50 [5]: 4.85 nM
- viability, T/C (second compound 0.1 µM, first compound 0.000316 µM): 105%
- viability, T/C (second compound 0.1 µM, first compound 0.001 µM): 111%
- viability, T/C [6]: 85.9%
- viability, T/C [7]: 6.15%
- viability, T/C [8]: 0.37%
- viability, T/C [9]: 0.25%
- viability, T/C (second compound 0.316 µM, first compound 0.000316 µM): 99.8%
- viability, T/C (second compound 0.316 µM, first compound 0.001 µM): 106%
- viability, T/C [10]: 80.4%
- viability, T/C [11]: 4.86%
- viability, T/C [12]: 0.4%
- viability, T/C [13]: 0.15%
- viability, T/C (second compound 1 µM, first compound 0.000316 µM): 104%
- viability, T/C (second compound 1 µM, first compound 0.001 µM): 99.4%
- viability, T/C [14]: 78.2%
- viability, T/C [15]: 4.23%
- viability, T/C [16]: 0.34%
- viability, T/C [17]: 0.23%
- viability, T/C (second compound 3.16 µM, first compound 0.000316 µM): 108%
- viability, T/C (second compound 3.16 µM, first compound 0.001 µM): 111%
- viability, T/C [18]: 88%
- viability, T/C [19]: 5.7%
- viability, T/C [20]: 0.29%
- viability, T/C [21]: 0.28%
- viability, T/C (second compound 10 µM, first compound 0.000316 µM): 103%
- viability, T/C (second compound 10 µM, first compound 0.001 µM): 96.4%
- viability, T/C [22]: 74.5%
- viability, T/C [23]: 8.66%
- viability, T/C [24]: 0.32%
- viability, T/C [25]: 0.38%

- IC50 (curve of compound): < 0.949 nM
Structure (SMILES): CCc1c2c(nc3ccc(O)cc13)-c1cc3c(c(=O)n1C2)COC(=O)[C@]3(O)CC
- viability, T/C (compound 0.000949 µM): 4.87% and 6%
- viability, T/C (compound 0.003 µM): 3.58% and 4.94%
- viability, T/C (compound 0.00949 µM): 1.12% and 1.08%
- viability, T/C (compound 0.03 µM): 0.53% and 1.39%
- viability, T/C (compound 0.0949 µM): 0.45% and 1.25%
- viability, T/C (compound 0.3 µM): 0.6% and 1.68%
